# Results taken from patent US7906137B2, “Delivery agents for enhancing mucosal absorption of therapeutic agents” (Mediplex Corporation, Korea, priority 2004, dated 2011).
# Target: insulin (Homo sapiens, UniProt P01308)
# Test: Dissociation of high order protein aggregates by circular dichroism
# Assay type: physicochemical
# Settings: 0.18 mM insulin, 0.18-37 mM MP-DCK, CD 300 to 250 nm, room temperature (FIG. 5)
# Experimental: A circular dichroism spectropolarimeter (Jasco J-715, Tokyo, Japan) was used to measure the effect of a delivery carrier on the aggregation state of insulin. Solutions containing 0.18 mM insulin and different concentration of MP-DCK (0.18-37 mM) were scanned from 300 to 250 nm at room temperature at a scanning speed of 50 nm/min using a cuvette with a pathlength of 0.1 cm. The results of the test are illustrated in FIG. 5.
# Sequence of insulin (P01308 25-54 limits assumed): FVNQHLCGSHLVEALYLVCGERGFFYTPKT
# Sequence of insulin (P01308 90-110 limits assumed): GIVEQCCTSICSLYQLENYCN
smiles,measurement,value
"COC(=O)[C@H](CCCCN)NC(=O)CC[C@@H](C)[C@H]1CC[C@H]2[C@@H]3CC[C@@H]4C[C@H](O)CC[C@]4(C)[C@H]3C[C@H](O)[C@]12C [DCK, N^α-deoxychoyl-L-lysine-methylester]",aggregation state of insulin,decrease the aggregation state of the insulin
